Values belong to the molecule of their own block, whether it stands above or below them.
What was measured:
SW-620 = experiment: Antiproliferative activity against human SW620 cells incubated for 72 hrs by colorimetric method; assay type: functional, cell-based; conditions: SW-620, 72 h
NCI-H23 = experiment: Antiproliferative activity against human NCI-H23 cells incubated for 72 hrs by colorimetric method; assay type: functional, cell-based; conditions: NCI-H23, 72 h
Histone deacetylase = experiment: Inhibition of HDAC (unknown origin); assay type: protein assay, Homo sapiens
PC-3 = experiment: Antiproliferative activity against human PC-3 cells incubated for 72 hrs by colorimetric method; assay type: functional, cell-based; conditions: PC-3, 72 h
Daudi = experiment: Cytotoxicity against human Daudi cells assessed as reduction in cell growth incubated for 24 hrs by MTT assay; assay type: functional, cell-based
MV4-11 = experiment: Cytotoxicity against human MV4-11 cells assessed as reduction in cell growth incubated for 24 hrs by MTT assay; assay type: functional, cell-based; conditions: MV4-11, 24 h
A549 [1] = experiment: Cytotoxicity against human A549 cells assessed as reduction in cell growth incubated for 24 hrs by MTT assay; assay type: functional, cell-based; conditions: A549, 24 h
Histone deacetylase 8 = target: T1, Histone deacetylase 8 (Homo sapiens, UniProt Q9BY41); experiment: Inhibition of HDAC8 (unknown origin) using R-H-K(Ac)-K(Ac)-AFC as fluoregenic substrate by fluorescence based analysis
T1 sequence (Q9BY41 whole entry): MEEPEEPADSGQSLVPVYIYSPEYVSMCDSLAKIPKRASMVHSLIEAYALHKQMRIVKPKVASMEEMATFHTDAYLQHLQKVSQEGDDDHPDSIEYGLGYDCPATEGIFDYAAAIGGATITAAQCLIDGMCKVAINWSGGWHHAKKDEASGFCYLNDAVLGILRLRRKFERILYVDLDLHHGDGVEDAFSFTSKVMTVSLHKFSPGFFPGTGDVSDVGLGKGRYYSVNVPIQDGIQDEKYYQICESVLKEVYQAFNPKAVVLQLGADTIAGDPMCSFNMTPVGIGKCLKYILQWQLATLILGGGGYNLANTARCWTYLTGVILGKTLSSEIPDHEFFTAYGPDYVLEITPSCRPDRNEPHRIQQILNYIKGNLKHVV

MCF7 [2] = experiment: Cytotoxicity against human MCF7 cells assessed as reduction in cell growth incubated for 24 hrs by MTT assay; assay type: functional, cell-based; conditions: MCF7, 24 h
MCF7 [3] = experiment: cells; conditions: Homo sapiens
HCT-116 [4] = experiment: cells; conditions: Homo sapiens
A549 [5] = experiment: Antiproliferative activity against human A549 cells
HL-60 = experiment: Antiproliferative activity against human HL-60 cells; assay type: functional, cell-based
MDA-MB-231 = experiment: Antiproliferative activity against human MDA-MB-231 cells
[6] = target: T2, Protein deacetylase HDAC6 (Homo sapiens, UniProt Q9UBN7); experiment: Inhibition of HDAC6 (unknown origin)
T2 sequence (Q9UBN7 whole entry): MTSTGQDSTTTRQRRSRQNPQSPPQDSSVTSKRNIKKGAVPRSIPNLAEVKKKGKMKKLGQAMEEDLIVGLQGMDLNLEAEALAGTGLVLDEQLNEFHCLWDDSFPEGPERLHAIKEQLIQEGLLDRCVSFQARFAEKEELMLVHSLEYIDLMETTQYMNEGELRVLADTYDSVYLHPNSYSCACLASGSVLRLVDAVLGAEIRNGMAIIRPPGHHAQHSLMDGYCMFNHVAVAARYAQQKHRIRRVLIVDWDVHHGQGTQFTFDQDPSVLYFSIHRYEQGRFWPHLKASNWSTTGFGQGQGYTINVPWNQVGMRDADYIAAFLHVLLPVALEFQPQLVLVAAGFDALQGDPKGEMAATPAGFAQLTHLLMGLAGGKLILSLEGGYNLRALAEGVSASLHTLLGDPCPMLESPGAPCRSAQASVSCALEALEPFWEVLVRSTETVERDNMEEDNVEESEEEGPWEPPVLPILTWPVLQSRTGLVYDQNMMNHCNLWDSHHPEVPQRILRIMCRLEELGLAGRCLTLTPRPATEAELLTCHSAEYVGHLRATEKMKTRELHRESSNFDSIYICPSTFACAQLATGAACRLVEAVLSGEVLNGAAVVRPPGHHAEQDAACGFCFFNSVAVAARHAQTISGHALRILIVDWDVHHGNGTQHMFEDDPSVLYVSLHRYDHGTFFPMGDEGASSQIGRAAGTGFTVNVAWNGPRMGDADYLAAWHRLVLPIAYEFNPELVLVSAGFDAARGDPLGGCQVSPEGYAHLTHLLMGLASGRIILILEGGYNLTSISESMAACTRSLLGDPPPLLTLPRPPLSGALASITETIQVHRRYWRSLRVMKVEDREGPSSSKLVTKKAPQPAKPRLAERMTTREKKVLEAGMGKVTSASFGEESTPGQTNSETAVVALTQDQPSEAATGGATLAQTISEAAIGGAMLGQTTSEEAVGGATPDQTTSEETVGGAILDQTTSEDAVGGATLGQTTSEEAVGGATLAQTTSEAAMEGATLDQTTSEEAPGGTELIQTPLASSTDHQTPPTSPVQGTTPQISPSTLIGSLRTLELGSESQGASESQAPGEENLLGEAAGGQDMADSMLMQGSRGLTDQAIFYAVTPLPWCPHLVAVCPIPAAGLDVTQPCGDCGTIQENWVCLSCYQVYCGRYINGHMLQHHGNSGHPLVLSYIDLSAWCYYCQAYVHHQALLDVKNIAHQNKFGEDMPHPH

A-375 = experiment: Antiproliferative activity against human A-375 cells; assay type: functional, cell-based
SGC-7901 = experiment: Antiproliferative activity against human SGC-7901 cells; assay type: functional, cell-based
Histone deacetylase 1 = Histone deacetylase 1 (Homo sapiens, UniProt Q13547); experiment: Inhibition of HDAC1 (unknown origin)
A2780 = experiment: Antiproliferative activity against human A2780 cells; assay type: functional, cell-based
[7] = target: Phosphatidylinositol 4,5-bisphosphate 3-kinase catalytic subunit alpha isoform (Homo sapiens, UniProt P42336); experiment: Inhibition of PI3Kalpha (unknown origin)
Jurkat = experiment: Antiproliferative activity against human Jurkat cells; assay type: functional, cell-based
HepG2 = experiment: Antiproliferative activity against human HepG2 cells; assay type: functional, cell-based
[8] = target: Tyrosine-protein kinase JAK2 (Homo sapiens, UniProt O60674); experiment: Inhibition of JAK2 (unknown origin)
HCT-116 [9] = experiment: Antiproliferative activity against human HCT-116 cells measured after 72 hrs by MTT assay; assay type: functional, cell-based; conditions: HCT-116, 72 h
A549 [10] = experiment: Antiproliferative activity against human A549 cells measured after 72 hrs by MTT assay; assay type: functional, cell-based; conditions: A549, 72 h
MCF7 [11] = experiment: Antiproliferative activity against human MCF7 cells measured after 72 hrs by MTT assay; assay type: functional, cell-based; conditions: MCF7, 72 h
KYSE-450 = experiment: Antiproliferative activity against human KYSE-450 cells; assay type: functional, cell-based
MGC-803 = experiment: Antitumor activity against human MGC-803 cells xenografted in mouse assessed as tumor growth inhibition at 20 mg/kg relative to control; assay type: functional; conditions: read-out: TGI

Sequence of Histone deacetylase 1 (Q13547 whole entry): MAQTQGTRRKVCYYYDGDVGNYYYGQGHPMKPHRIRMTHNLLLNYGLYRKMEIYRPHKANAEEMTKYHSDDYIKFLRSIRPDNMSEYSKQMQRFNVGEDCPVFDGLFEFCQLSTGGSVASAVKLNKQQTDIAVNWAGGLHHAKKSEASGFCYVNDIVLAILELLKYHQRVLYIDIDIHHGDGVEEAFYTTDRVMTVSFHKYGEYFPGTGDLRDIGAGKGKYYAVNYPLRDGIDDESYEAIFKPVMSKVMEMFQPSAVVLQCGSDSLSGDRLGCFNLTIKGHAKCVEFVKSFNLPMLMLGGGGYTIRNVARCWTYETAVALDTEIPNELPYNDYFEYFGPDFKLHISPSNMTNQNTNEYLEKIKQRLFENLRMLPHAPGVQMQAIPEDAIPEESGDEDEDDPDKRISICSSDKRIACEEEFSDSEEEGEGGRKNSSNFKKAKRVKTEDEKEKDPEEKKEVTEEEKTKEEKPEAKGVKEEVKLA
Sequence of Phosphatidylinositol 4,5-bisphosphate 3-kinase catalytic subunit alpha isoform (P42336 whole entry, canonical isoform): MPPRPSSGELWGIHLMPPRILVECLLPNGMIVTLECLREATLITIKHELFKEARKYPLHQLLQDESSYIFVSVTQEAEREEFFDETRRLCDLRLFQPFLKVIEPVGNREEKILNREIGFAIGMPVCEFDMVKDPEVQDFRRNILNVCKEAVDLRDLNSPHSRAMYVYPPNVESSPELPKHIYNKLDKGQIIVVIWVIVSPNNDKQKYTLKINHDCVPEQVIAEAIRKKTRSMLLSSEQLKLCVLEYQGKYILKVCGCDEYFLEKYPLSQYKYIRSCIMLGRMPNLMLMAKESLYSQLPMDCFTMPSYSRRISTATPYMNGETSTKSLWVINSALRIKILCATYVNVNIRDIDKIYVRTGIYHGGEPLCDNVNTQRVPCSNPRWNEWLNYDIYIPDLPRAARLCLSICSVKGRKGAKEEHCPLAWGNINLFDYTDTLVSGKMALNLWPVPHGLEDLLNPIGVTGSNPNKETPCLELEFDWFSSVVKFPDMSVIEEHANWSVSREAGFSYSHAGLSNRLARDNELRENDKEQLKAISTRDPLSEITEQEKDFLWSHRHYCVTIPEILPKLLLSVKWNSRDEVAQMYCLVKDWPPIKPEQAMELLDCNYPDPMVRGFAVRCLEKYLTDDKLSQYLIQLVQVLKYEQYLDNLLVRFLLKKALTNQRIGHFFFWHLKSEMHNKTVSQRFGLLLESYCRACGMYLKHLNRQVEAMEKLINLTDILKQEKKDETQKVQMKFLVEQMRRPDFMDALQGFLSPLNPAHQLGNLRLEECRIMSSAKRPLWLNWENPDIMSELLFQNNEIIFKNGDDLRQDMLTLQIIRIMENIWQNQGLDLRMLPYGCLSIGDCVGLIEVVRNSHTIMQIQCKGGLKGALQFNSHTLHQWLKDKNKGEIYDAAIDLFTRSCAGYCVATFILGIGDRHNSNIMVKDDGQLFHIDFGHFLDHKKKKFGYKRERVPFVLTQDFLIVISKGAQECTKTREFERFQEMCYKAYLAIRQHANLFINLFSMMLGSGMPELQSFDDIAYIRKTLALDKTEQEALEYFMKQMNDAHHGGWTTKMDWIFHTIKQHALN
Sequence of Tyrosine-protein kinase JAK2 (O60674 whole entry): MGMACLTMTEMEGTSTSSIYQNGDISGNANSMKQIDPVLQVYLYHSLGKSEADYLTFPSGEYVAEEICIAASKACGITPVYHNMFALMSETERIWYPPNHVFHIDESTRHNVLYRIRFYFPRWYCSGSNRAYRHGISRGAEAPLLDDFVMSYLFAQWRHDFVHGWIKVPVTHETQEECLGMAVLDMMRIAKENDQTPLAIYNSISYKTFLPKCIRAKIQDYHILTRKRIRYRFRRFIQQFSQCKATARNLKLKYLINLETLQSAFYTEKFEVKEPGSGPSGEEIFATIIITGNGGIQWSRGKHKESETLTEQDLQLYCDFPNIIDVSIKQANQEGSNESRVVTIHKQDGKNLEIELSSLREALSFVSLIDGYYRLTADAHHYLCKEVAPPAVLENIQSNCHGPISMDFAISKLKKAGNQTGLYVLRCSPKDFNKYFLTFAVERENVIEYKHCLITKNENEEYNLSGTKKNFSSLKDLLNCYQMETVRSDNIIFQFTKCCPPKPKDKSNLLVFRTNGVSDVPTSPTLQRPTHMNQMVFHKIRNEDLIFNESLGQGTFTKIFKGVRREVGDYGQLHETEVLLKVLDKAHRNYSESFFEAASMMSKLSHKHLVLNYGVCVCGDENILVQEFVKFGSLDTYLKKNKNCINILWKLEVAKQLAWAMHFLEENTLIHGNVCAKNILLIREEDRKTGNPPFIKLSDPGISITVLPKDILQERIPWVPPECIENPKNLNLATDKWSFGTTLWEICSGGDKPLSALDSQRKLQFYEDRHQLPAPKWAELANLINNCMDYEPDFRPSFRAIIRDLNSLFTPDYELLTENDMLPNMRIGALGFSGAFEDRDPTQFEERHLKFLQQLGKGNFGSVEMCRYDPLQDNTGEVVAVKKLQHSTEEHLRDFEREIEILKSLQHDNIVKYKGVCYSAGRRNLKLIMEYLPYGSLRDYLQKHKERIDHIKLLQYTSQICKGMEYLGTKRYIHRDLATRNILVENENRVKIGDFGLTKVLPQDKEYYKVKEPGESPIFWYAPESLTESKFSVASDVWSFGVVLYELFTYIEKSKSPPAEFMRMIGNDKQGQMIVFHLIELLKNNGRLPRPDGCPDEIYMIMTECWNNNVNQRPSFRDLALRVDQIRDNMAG

Compound: Cc1ccc(NS(=O)(=O)Nc2nc(C(=O)NO)cs2)cc1
IC50 (SW-620): 1450 nM
IC50 (NCI-H23): 1450 nM
IC50 (Histone deacetylase): 36 nM
IC50 (PC-3): 1450 nM

Compound: O=C(NO)c1csc(NS(=O)(=O)Nc2ccc(Cl)cc2)n1
IC50 (SW-620): 1450 nM
IC50 (NCI-H23): 1450 nM
IC50 (Histone deacetylase): 36 nM
IC50 (PC-3): 1450 nM

Compound: O=C(CCCCCN1C(=O)c2ccccc2/C=C\c2ccccc21)NO
IC50 (Daudi): 93 nM
IC50 (MV4-11): 93 nM
IC50 (A549 [1]): 93 nM
IC50 (Histone deacetylase 8): 183 nM
IC50 (MCF7 [2]): 93 nM

Compound: O=C(Cc1ccc(C(=O)NO)cc1)Nc1ccc2ncnc(Nc3ccc(I)cc3)c2c1
IC50 (MCF7 [3]): 2200 nM
IC50 (HCT-116 [4]): 2200 nM
IC50 (A549 [5]): 2200 nM
IC50 (HL-60): 2200 nM
IC50 (MDA-MB-231): 2200 nM
IC50 [6]: 16300 nM
IC50 (A-375): 2200 nM
IC50 (SGC-7901): 2200 nM

Compound: O=C(NO)c1csc(NS(=O)(=O)Nc2ccccc2)n1
IC50 (SW-620): 1450 nM
IC50 (NCI-H23): 1450 nM
IC50 (PC-3): 1450 nM

Compound: CN1c2ccc(NCC3CCN(c4ncc(C(=O)NO)cn4)CC3)cc2C(=O)N2CCc3c([nH]c4ccc(O)cc34)C21 (configuration not stated)
IC50 (MCF7 [3]): 230 nM
IC50 (A549 [5]): 230 nM

Compound: CNC(=O)c1ccccc1Nc1nc(Nc2ccc(N3CCOCC3)cc2OC)ncc1Cl
IC50 (KYSE-450): 719 nM
IC50 (HCT-116 [4]): 719 nM
inhibition in vivo at 20 mg/kg (MGC-803): 22.3%

Other lines, results leading:

IC50 (Histone deacetylase 1): 4.8 nM
IC50 (A2780): 2620 nM
IC50 [7]: 1.3 nM
Compound: COc1ncc(-c2ccc3nccc(C(=O)NCCCCCC(=O)NO)c3c2)cc1NS(=O)(=O)c1cc(F)cc(F)c1

IC50 (MCF7 [3]): 1960 nM
IC50 [6]: 26 nM
Compound: COc1cc(OCCCCCCC(=O)NO)ccc1C1c2ccc(O)cc2CCN1CC(C)(C)F (configuration not stated)

IC50 (Histone deacetylase 1): 4.8 nM
IC50 (A2780): 2310 nM
IC50 [7]: 1.3 nM
Compound: COc1ncc(-c2ccc3ncc(C(=O)NCCCCCCC(=O)NO)cc3c2)cc1NS(=O)(=O)c1ccc(F)cc1F

IC50 (Histone deacetylase 1): 31.9 nM
IC50 (A549 [5]): 140 nM
IC50 (MDA-MB-231): 140 nM
IC50 (Jurkat): 140 nM
IC50 (HepG2): 140 nM
IC50 [8]: 0.5 nM
Compound: COc1cccc(Nc2nc(Nc3ccc(NC(=O)CCCCCCC(=O)NO)cc3)ncc2C)c1

IC50 (Histone deacetylase): 5.8 nM
Compound: CC(C)(C)OC(=O)Nc1cccc(-c2cc(C(=O)NCCCCCCC(=O)NO)no2)c1

IC50 (HCT-116 [9]): 280 nM
IC50 (A549 [10]): 280 nM
IC50 (MCF7 [11]): 280 nM
Compound: COc1cc2c(Oc3ccc(NC(=O)C4CCN(c5cccc(F)c5)C4=O)cc3)ccnc2cc1OCCCCCCC(=O)NO (configuration not stated)

Reference: ChEMBL document CHEMBL5614367, “Hydroxamic acid hybrids: Histone deacetylase inhibitors with anticancer therapeutic potency” (Eur J Med Chem, 2023)
